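Five compound concentrations were applied to cells in 96-well plates for 48 hours; endpoints were derived by simple linear interpolation of the resulting dose-response curve. GI50 marks 50% less growth.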 Activity calls are given as the source filed them. Rule as the data show it: active = GI50 up to about 1.1 µM and inactive = higher.
How the values were obtained:
Experiment in all cases: growth of human tumour cells (NCI), 48 h
[1] = test system: HOP-92
[2] = test system: MCF7
[3] = test system: SNB-75
[4] = test system: SR
[5] = test system: CCRF-CEM
[6] = test system: NCI-H460
[7] = test system: SNB-78
[8] = test system: MDA-N
[9] = test system: M14
[10] = test system: MDA-MB-435
[11] = test system: PC-3
[12] = test system: KM12
[13] = test system: SW-620
[14] = test system: LXFL 529
[15] = test system: MDA-MB-231
[16] = test system: U-251
[17] = test system: HL-60
[18] = test system: UACC-62
[19] = test system: DU-145
[20] = test system: NCI-H226
[21] = test system: SK-OV-3
[22] = test system: SN12C
[23] = test system: RXF 393
[24] = test system: SK-MEL-2
[25] = test system: T47D
[26] = test system: SF-295
[27] = test system: SF-539
[28] = test system: SNB-19
[29] = test system: K562
[30] = test system: SK-MEL-28
[31] = test system: HCC 2998
[32] = test system: IGROV-1
[33] = test system: DLD-1
[34] = test system: TK-10
[35] = test system: Malme-3M
[36] = test system: XF498
[37] = test system: HCT-15
[38] = test system: SK-MEL-5
[39] = test system: COLO 205
[40] = test system: RPMI-8226
[41] = test system: CAKI-1
[42] = test system: A549
[43] = test system: 786-0
[44] = test system: UO-31
[45] = test system: OVCAR-5
[46] = test system: NCI/ADR-RES
[47] = test system: DMS-273
[48] = test system: HOP-62
[49] = test system: SF-268
[50] = test system: HT-29
[51] = test system: MOLT-4
[52] = test system: UACC-257
[53] = test system: OVCAR-4
[54] = test system: OVCAR-3
[55] = test system: Hs-578T
[56] = test system: A498
[57] = test system: OVCAR-8
[58] = test system: NCI-H23
[59] = test system: ACHN
[60] = test system: EKVX
[61] = test system: HCT-116
[62] = test system: LOX IMVI
[63] = test system: BT-549
[64] = test system: NCI-H522
[65] = test system: M19-MEL
[66] = test system: KM-20L2

Cc1cc2c(c3c1c1ccccc1n3C)C(=O)C=CC2=O
GI50 [1]: 12.9 µM (inactive)
GI50 [2]: 10.9 µM (inactive)
GI50 [3]: 41.6 µM (inactive)
GI50 [4]: 0.885 µM (active)
GI50 [5]: 0.631 µM (active)
GI50 [6]: 33.9 µM (inactive)
GI50 [7]: > 54.1 µM (inactive)
GI50 [8]: 24.5 µM (inactive)
GI50 [9]: 25.6 µM (inactive)
GI50 [10]: 28.8 µM (inactive)
GI50 [11]: 16.9 µM (inactive)
GI50 [12]: 25.2 µM (inactive)
GI50 [13]: 7.6 µM (inactive)
GI50 [14]: 5.6 µM (inactive)
GI50 [15]: 25.7 µM (inactive)
GI50 [16]: 19.3 µM (inactive)
GI50 [17]: 1.45 µM (inactive)
GI50 [18]: 19.6 µM (inactive)
GI50 [19]: 58.9 µM (inactive)
GI50 [20]: 40.3 µM (inactive)
GI50 [21]: 55.5 µM (inactive)
GI50 [22]: 27.2 µM (inactive)
GI50 [23]: 15.3 µM (inactive)
GI50 [24]: 21.6 µM (inactive)
GI50 [25]: 13 µM (inactive)
GI50 [26]: 32.4 µM (inactive)
GI50 [27]: 23.8 µM (inactive)
GI50 [28]: 63.7 µM (inactive)
GI50 [29]: 3.15 µM (inactive)
GI50 [30]: 19.9 µM (inactive)
GI50 [31]: 33 µM (inactive)
GI50 [32]: 39.6 µM (inactive)
GI50 [33]: 6.32 µM (inactive)
GI50 [34]: 24.2 µM (inactive)
GI50 [35]: 28.3 µM (inactive)
GI50 [36]: 17.7 µM (inactive)
GI50 [37]: 13.7 µM
GI50 [38]: 32.3 µM (inactive)
GI50 [39]: 29.1 µM (inactive)
GI50 [40]: 2.82 µM (inactive)
GI50 [41]: 23.2 µM (inactive)
GI50 [42]: 44.6 µM (inactive)
GI50 [43]: 5.6 µM (inactive)
GI50 [44]: 16.1 µM (inactive)
GI50 [45]: 43.7 µM (inactive)
GI50 [46]: 35.8 µM (inactive)
GI50 [47]: 22.5 µM (inactive)
GI50 [48]: 44.1 µM (inactive)
GI50 [49]: 23.9 µM (inactive)
GI50 [50]: 31 µM (inactive)
GI50 [51]: 2 µM (inactive)
GI50 [52]: 18.2 µM (inactive)
GI50 [53]: 12 µM (inactive)
GI50 [54]: 11.5 µM (inactive)
GI50 [55]: 24.8 µM (inactive)
GI50 [56]: 47.5 µM (inactive)
GI50 [57]: 22.9 µM (inactive)
GI50 [58]: 10.7 µM (inactive)
GI50 [59]: 21.3 µM (inactive)
GI50 [60]: > 75.5 µM (inactive)
GI50 [61]: 18.8 µM (inactive)
GI50 [62]: 16.9 µM (inactive)
GI50 [63]: 14.1 µM (inactive)
GI50 [64]: 13.9 µM (inactive)

CC(C)C(Sc1nc(-c2ccccc2)c(-c2ccccc2)[nH]1)c1n[nH]c(=S)n1-c1ccccc1 (configuration not stated)
GI50 [1]: 22.5 µM (inactive)
GI50 [3]: 66.5 µM (inactive)
GI50 [4]: 32.2 µM (inactive)
GI50 [5]: 23.9 µM (inactive)
GI50 [6]: 32.3 µM (inactive)
GI50 [7]: 46 µM (inactive)
GI50 [9]: 19.2 µM (inactive)
GI50 [12]: 16.1 µM (inactive)
GI50 [13]: 23.4 µM (inactive)
GI50 [14]: 18.5 µM (inactive)
GI50 [16]: 22.9 µM (inactive)
GI50 [17]: 20.7 µM (inactive)
GI50 [18]: 11.5 µM (inactive)
GI50 [20]: 37.7 µM (inactive)
GI50 [21]: 40.3 µM (inactive)
GI50 [22]: 37.2 µM (inactive)
GI50 [24]: 20.4 µM (inactive)
GI50 [26]: 22.3 µM (inactive)
GI50 [27]: 22.4 µM (inactive)
GI50 [28]: 25 µM (inactive)
GI50 [30]: 29.9 µM (inactive)
GI50 [31]: 28.4 µM (inactive)
GI50 [32]: 26.4 µM (inactive)
GI50 [33]: 41.5 µM (inactive)
GI50 [34]: 45 µM (inactive)
GI50 [35]: 21.2 µM (inactive)
GI50 [36]: 37.7 µM (inactive)
GI50 [37]: 50.5 µM
GI50 [38]: 17.7 µM (inactive)
GI50 [39]: 23.9 µM (inactive)
GI50 [40]: 21.2 µM (inactive)
GI50 [42]: 33.7 µM (inactive)
GI50 [43]: 30.8 µM (inactive)
GI50 [65]: 17.5 µM (inactive)
GI50 [44]: 22.8 µM (inactive)
GI50 [45]: 24.7 µM (inactive)
GI50 [66]: 29.1 µM (inactive)
GI50 [47]: 23.6 µM (inactive)
GI50 [48]: 44.6 µM (inactive)
GI50 [49]: 29.4 µM (inactive)
GI50 [50]: 23.8 µM (inactive)
GI50 [51]: 18 µM (inactive)
GI50 [52]: 31.7 µM (inactive)
GI50 [53]: 35.5 µM (inactive)
GI50 [54]: 19.6 µM (inactive)
GI50 [56]: 43.3 µM (inactive)
GI50 [57]: 34.5 µM (inactive)
GI50 [58]: 21.9 µM (inactive)
GI50 [59]: 29.6 µM (inactive)
GI50 [60]: 26.2 µM (inactive)
GI50 [61]: 41.6 µM (inactive)
GI50 [62]: 17.5 µM (inactive)
GI50 [64]: 21 µM (inactive)
